Here are results for eight molecules from patent US11140897B2, “Liquid-core capsules for pest control” (Katz Biotech AG, priority 2015, dated 2021).

A short description of series [1]: active substance release from liquid-core capsules in two manufacturing variants (headspace sampling, GC-MS). It counts as physicochemical. Conditions: 1 week. How it is done: The experiment was conducted in principle as in the model system described in Section D in terms of odor collection and analysis using gas chromatography with mass spectrometry coupling. The following table and FIG. 6 summarize the results of the experiment.

The subject of series [2] is Lygus rugulipennis. Description: olfactometer experiments for attractant effect on true bugs. It counts as in vivo. Conditions: for true bugs running in the direction of the attractant / attracting action: attractant concentration 0.01 μg/μL (FIG. 7). How it is done:
Comparative behavior studies were conducted on the bug species Lygus rugulipennis in the olfactometer for identifying suitable attractants (odors). The attracting action of a total of 28 different concentrations of substances and substance mixtures was determined in about 380 individual tests. A result was considered purely coincidental if 50% of the animals decided in favor of an odor and 50% decided against. The odor is considered attractive if more than about 65% of the animals move towards it. […] The certainty of the evaluation increases with the number of tests and is accepted after about 10 repetitions.

Series [3] is described as follows: loss in mass of alginate model cylinders with additives in the hydrogel. It counts as physicochemical. Here is the method: The following table summarizes the absolute losses in mass for alginate model cylinders (d=13 mm, h=13 mm) after 240 minutes, with the addition of various additives in their most suitable concentrations and the relative losses in mass compared to the losses in mass of the standard specimen without the additives (MCC—microcrystalline cellulose, EC—ethyl cellulose).

The test system of series [4] is Lygus rugulipennis. In words: effect on true bugs after ingesting core liquid with active substance. The series is classed as in vivo. Here is the method: Experiments were conducted with Lygus rugulipennis and the liquid-core capsules according to the invention, wherein an aqueous nutrient solution having 0.5% NeemAzal® T/S (biological active substance: azadirachtin 0.1%) was present in the core of the capsules. Another experiment was conducted with the chemical active substance acetamiprid (0.01%). When they had contact with the liquid-core capsules, the true bugs used their proboscis to pierce the outer shells of the liquid-core capsules and ingest at least some of the core solution. […] The animals were subjected to a 6-hour hunger phase prior to the beginning of the experiment. […] The lengthy dwell time of the proboscis in the capsule permits this conclusion. With the imago insects, this was an average of 160 seconds, 150 seconds with the nymphs. With the imago insects, this was preceded by a mean testing period (feeling the capsule with the proboscis) of about 30 seconds.
The true bugs ceased their activity nearly entirely about 1 day after ingesting the core liquid with the active substance azadirachtin and died after 5 days, on average. The chemical active substance acetamiprid took effect a few seconds after being ingested.

Series [5] deals with true bugs. In words: electrophysiological examinations (electroantennography) of true bugs. Conditions: higher concentration (10 μg/μL, FIG. 9). How it is done:
Electroantennography is a method for measuring the olfactory reactions of an insect by recording electrical signals on the antennae, wherein slow changes in receptor potential that are preferably recorded in the extracellular space within the insect antenna are analyzed. Complex odor mixtures may be investigated using this method. For instance, the use of electroantennography for identifying attractants for wasps is known from DE 11 2010 005 095 T5.
FIGS. 8 and 9 summarize the results of electrophysiological examinations of true bugs. Green leaf volatiles (Z)-3-hexenyl acetate, (Z)-3-hexen-1-ol, 1-hexenal, the terpenoids (E)-β-caryophyllene, methyl salicylate, ocimene, phenylacetaldehyde, nonanal, alpha-pinene, and geraniol were tested as plant odors, hexyl butyrate and (E)-2-hexenyl butyrate were tested as pheromones of insects, and a synthetic active substance mixture made of (Z)-3-hexen-1-ol, (E)-β-caryophyllene, and hexyl butyrate were tested. FIG. 8 provides the responses in female (a) and male (b) true bugs at an active substance concentration of 0.1 μg/μL. FIG. 9 provides the responses in female (a) and male (b) true bugs at an active substance concentration of 10 μg/μL.

Where [6] appears, read: core: nutrient solution with 0.5% NeemAzal T/S (azadirachtin 0.1%).

In the case of `C=C1CC/C=C(\C)CC[C@@H]2[C@@H]1CC2(C)C` [(E)-b-caryophyllene], the odor collected was found to be 6.8% in series [1] (capsules Type 1) and 26.0% in series [1] (capsules Type 2). Further, the “quantity of odor per unit of time” value in series [1] (capsules Type 1) was determined as 205.2 µg; in series [1] (capsules Type 2) it was 781.0 µg. Also, the “true bugs running in the direction of the attractant / attracting action” value in series [2] amounted to 80%. For the same molecule, in series [2] (in vivo), the “change of attracting effect in increased concentrations” value (from here on “change … in increased concentrations”) was “reduced”.

On to `CC/C=C\CCO` [(Z)-3-hexen-1-ol], for which, in series [1] (capsules Type 1), the odor collected is 0.5% and the “quantity of odor per unit of time” value worked out at 15.2 µg. Moreover, in series [1] (capsules Type 2), the odor collected came to 7.8% and the “quantity of odor per unit of time” value stood at 235.1 µg. Further, the “true bugs running in the direction of the attractant / attracting action” value in series [2] was 80%. For the same molecule, in series [2] (in vivo), the “change … in increased concentrations” value was “reduced”.

In the case of `CCCCCCOC(=O)CCC` [Hexyl butyrate], the values for the odor collected in series [1] (capsules Type 1) and in series [1] (capsules Type 2) were 2.0% and 19.7%, respectively. The “quantity of odor per unit of time” value in series [1] (capsules Type 1) was 58.8 µg; in series [1] (capsules Type 2), 592.0 µg. Further, the “attraction in olfactometer experiments” value in series [2] (in vivo) was “not preferred”.

In the case of `CCCCCCCCCCCCCCCCCC(=O)O` [Stearic acid], the “Loss in mass [%] after 240 min with additive (“Specimen”)” value in series [3] (alginate model cylinders d=13 mm, h=13 mm, additive in its most suitable concentration) turned out to be 6.92%. In series [3] (relative to standard specimen without additive), the “Specimen loss in mass after 240 min compared to Standard loss in mass [%]” value is on record as −6.87%.

On to `C/C(=N\C#N)N(C)Cc1ccc(Cl)nc1` [acetamiprid], for which the “time until active substance took effect after being ingested” value in series [4] (acetamiprid 0.01% in core) is given as “a few seconds”. Besides, the time to death entry in series [4] (acetamiprid 0.01% in core, after violent quivering) is reported as “a few minutes later”.

Consider `C/C=C(\C)C(=O)O[C@H]1C[C@@H](OC(C)=O)[C@@]2(C(=O)OC)CO[C@H]3[C@@H](O)[C@@](C)([C@]45O[C@@]4(C)[C@H]4C[C@@H]5O[C@@H]5OC=C[C@@]54O)[C@H]4[C@]1(CO[C@]4(O)C(=O)OC)[C@@H]32` [azadirachtin], for which, in series [4] (setting [6]), the “time to death, on average” value is 5 days and the “time until activity ceased nearly entirely after ingesting the core liquid” value is “about 1 day”.

In the case of `CCCCCCCCC=O` [nonanal], the “true bugs running in the direction of the attractant / attracting action” value in series [2] was “about 45%”. Moreover, the attracting action result in series [2] (concentration 1 μg/μL) is “about 60%”. Besides, the “change … in increased concentrations” value in series [2] (in vivo) was “increases”. Also, in series [5], the “registration by antennal chemoreceptors” value is “registered”.

As for `O=CCc1ccccc1` [phenylacetaldehyde], in series [5], the “registration by antennal chemoreceptors” value is given as “registered”.
